Test results from article PMC10573892, “β-Lactam TRPM8 Antagonists Derived from Phe-Phenylalaninol Conjugates: Structure–Activity Relationships and Antiallodynic Activity” (International Journal of Molecular Sciences, 2023).

Target: T1, rat TRPM8 channel (rTRPM8) (Rattus norvegicus, UniProt Q8R455)
T1 construct: expressed in transfected cells
Test: Ca2+ microfluorimetry, menthol-induced Ca2+ entry in HEK293 cells overexpressing rTRPM8
Assay type: cell-based
Details: Table 3; rTRPM8, HEK293, activation by 100 µM menthol
Protocol: The diastereomeric 1,4,4-trisubstitutes β-lactams were evaluated as modulators of the TRPM8 channel by calcium microfluorimetry assays. These assays use a Human Embryonic Kidney 293 (HEK293) cell line that stably overexpressed rat TRPM8 channel (rTRPM8). […] Three separated experiments in triplicate were used.
The initial biological evaluation of this series of 1,3,4,4-tetrasubstituted β-lactams was performed by calcium microfluorimetry assays using the indicated HEK293 cell line overexpressing rTRPM8 channels.
Calcium fluorometry, Patch-Clamp assays and in vivo experiments were performed using the methodology previously described for TRPM8 [35] or TRPM3 [61]. In the Patch -Clamp experiments, the intracellular pipette solution contained (in mM) 140 KCl, 5 EGTA, and 10 mM HEPES, adjusted to pH 7.2 with KOH, and the extracellular solution contained (in mM) 140 NaCl, 2 CaCl2, 1 MgCl2, 10 D-glucose and 10 HEPES, adjusted to pH 7.4 with NaOH. Selectivity against TRPV1, TRPV3, TRPA1 and ASIC3 was subcontracted to Eurofins-CEREP or Eurofins-PANLABS (see ref. [35] for more details).

T1 sequence (Q8R455 whole entry): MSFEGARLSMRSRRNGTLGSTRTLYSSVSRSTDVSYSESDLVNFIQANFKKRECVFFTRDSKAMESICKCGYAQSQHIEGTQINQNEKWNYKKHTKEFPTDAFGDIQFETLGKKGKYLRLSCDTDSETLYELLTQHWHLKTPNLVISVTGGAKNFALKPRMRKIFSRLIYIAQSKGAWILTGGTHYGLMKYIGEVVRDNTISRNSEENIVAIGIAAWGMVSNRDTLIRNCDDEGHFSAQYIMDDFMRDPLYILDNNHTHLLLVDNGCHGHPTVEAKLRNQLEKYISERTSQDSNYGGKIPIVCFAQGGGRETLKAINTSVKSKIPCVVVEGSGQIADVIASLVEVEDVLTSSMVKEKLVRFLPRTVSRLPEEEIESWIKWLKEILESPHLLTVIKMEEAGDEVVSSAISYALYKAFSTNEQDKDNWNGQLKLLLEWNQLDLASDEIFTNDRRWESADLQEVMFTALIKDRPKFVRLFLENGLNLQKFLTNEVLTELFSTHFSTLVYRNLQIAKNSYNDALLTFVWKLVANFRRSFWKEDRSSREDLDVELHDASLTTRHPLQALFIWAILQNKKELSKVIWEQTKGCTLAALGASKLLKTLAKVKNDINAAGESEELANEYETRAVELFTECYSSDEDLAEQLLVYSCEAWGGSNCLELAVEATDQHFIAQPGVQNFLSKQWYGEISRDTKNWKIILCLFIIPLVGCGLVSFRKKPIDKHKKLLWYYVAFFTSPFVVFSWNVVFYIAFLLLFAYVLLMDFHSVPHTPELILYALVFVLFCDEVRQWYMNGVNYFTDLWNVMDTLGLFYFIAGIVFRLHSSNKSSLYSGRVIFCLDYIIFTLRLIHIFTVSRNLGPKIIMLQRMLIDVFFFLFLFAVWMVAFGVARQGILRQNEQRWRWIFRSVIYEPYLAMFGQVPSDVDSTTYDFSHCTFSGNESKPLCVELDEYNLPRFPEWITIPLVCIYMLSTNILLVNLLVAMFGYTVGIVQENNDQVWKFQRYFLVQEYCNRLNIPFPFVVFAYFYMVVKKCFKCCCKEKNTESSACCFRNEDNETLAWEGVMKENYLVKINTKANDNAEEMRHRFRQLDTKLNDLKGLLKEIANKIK

IC50: 300 nM
Structure (SMILES): CC(C)CNC(=O)[C@]1(Cc2ccccc2)[C@H](C)C(=O)N1C[C@H](Cc1ccccc1)N(Cc1ccccc1)Cc1ccccc1 [Compound 34, 4S-Benzyl-4-[N-(iso-butyl)-carbamoyl]-3S-methyl-1-[(2′S-dibenzylamino-3′-phenyl)prop-1′-yl]-2-oxoazetidine]
